Molecules are shown by their SMILES.

Turning to `C#CCN(C)c1c(-c2c(F)cc(F)cc2F)c(OC)nc2ncnn12`, the melting point was 119 °C. Turning to `O=C1NCCC[C@@H]1NS(=O)(=O)c1ccc(F)c(F)c1`, the melting point was 153 to 155 °C. Then `O=c1[nH]c(Nc2ccccc2)nc2c1ncn2CC(O)CO` (stereo not given), with 312 to 315 °C; and `CC(C)(C)NS(=O)(=O)c1c[nH]c2ccccc12`, with 157 to 158 °C; and `O=C(O)c1cn(-c2nnc(C(F)(F)F)s2)c2nc(Cl)c(F)cc2c1=O`, with 232 to 237 °C. The result for `CCCNC(=S)NS(=O)(=O)c1cc2c(cc1OC)OC(C)(C)C(NC(=O)c1cc(Cl)ccc1OC)C2` (stereo not given) reads 210 to 211 °C; that for `COc1cc(OC)nc(Sc2sccc2NS(=O)(=O)C(F)(F)F)n1`, 103 to 104 °C. The result for `CCCCCCCCCCCCCCCCNc1cc(O)ccc1OCC` reads 88 to 90 °C; that for `CNc1ncnc2c1ncn2C1OC(CO)C(O)C1O` (stereo not given), 202 °C; that for `O=C/C=C/C1=C(c2ccc(F)cc2)C=C(c2ccc(F)cc2)CC12CCCC2`, 120 to 124 °C.

For the compound `C#CCSc1nnc(-c2cccs2)s1`, the melting point lay within 71 to 73 °C. In turn, `Fc1cnc(Nc2nc3c(s2)CCN(CCCN2CCOCC2)c2n[nH]cc2-3)nc1` had a melting point of 251 to 254 °C.

As to `Nc1cccc(NC(=O)Nc2ccc(N(CCCl)CCCl)cc2)c1`, the melting point was 182 to 183 °C. `CCOC(=O)CCN1CCN2c3ccccc3Cc3ccccc3C2C1` (stereo not given) gave a melting point of 159 to 160 °C. Regarding `COc1ccc2c(c1)c1c(n2Cc2ccc(Cl)cc2)CCCC1C(=O)O` (stereo not given), the melting point was 218 to 220 °C.

With `O=C1c2ccc(C(F)(F)F)cc2C(=O)c2cc3ccccc3cc21`, the melting point lay in the range of 253 to 254 °C. Regarding `COc1ccccc1[C@H](C)C(=O)N1C[C@@H]2[C@H](F)CCC(c3ccccc3)(c3ccccc3)[C@@H]2C1`, the melting point was found to be 195 °C.

Take `CCN(CC)C(=O)c1ccc(OC)cc1-c1ccccc1`: the melting point was 64 to 65 °C. The result for `COc1ccc2c(=O)c(N)coc2c1` reads 143 to 146 °C; that for `COC(=O)c1ccc(C(=O)CC(=O)OCc2ccccc2)cc1`, 71 °C; that for `CC(C)N(CCC(CCN(C(C)C)C(C)C)(C(N)=O)c1ccccc1)C(C)C`, 102 to 103 °C. Then `C[Si](C)(C)CCOc1ccc(N)cn1`, with 59 to 61 °C. Compound `CN1C(=O)CN(N)C(c2ccccc2)c2cc(Cl)ccc21` (stereo not given) registered a melting point of 147 to 148 °C.

`CC1(C)CC(=O)C(SCc2ccc(F)cc2)=C(O)C1`: the melting point was found to be 112 °C. In the case of `Cc1ccc(-c2cccc(C(N)=O)c2)cc1`, the melting point lay within 200 to 205 °C. `O=c1c(-c2ccccc2F)c(CNc2ncnc3[nH]cnc23)oc2ccccc12` yielded a melting point of 143 to 147 °C.

As for `COc1ccc(-n2nc(CBr)cc2-c2ccc(Cl)cc2)cc1`, the melting point lay within 88 to 90 °C.

For `Cn1ccc(NC(=O)Nc2cccc3c2C2CCCCN2C3=O)n1` (stereo not given), the melting point was determined as 233 °C. As for `COCOc1ccc(C=O)c(Cl)c1OCc1ccccc1`, the melting point was 66 to 67 °C.

Turning to `COCc1noc(-c2ncn3c2CN(C)C(=O)c2cc(F)ccc2-3)n1`, the melting point was 192 to 194 °C. The result for `O=C1c2ccccc2C(=O)N1CCCCN1CCC(c2noc3cc(F)ccc23)CC1` reads 144 to 146 °C. Then `N#Cc1ccc(N2CCC[C@H]2C(N)=O)c2ccccc12`, with 177 to 178 °C; and `CCOC(=O)C=C(Nc1ccc(O)c(=O)cc1)C(=O)OCC`, with 108 °C; and `CC(=O)c1cnn(-c2ccnc3cc(Cl)ccc23)c1`, with 190 to 192 °C.

In the case of `COC1C(OC(=O)N2CCOCC2)CCC2(CO2)C1C1(C)OC1CCOCc1ccccc1` (stereo not given), the melting point fell in the range of 96 to 97 °C.

`CS(=O)(=O)c1ccc(-c2cc(=O)n(CC3CCC3)nc2-c2ccc(F)cc2)cc1`: the melting point was in the range of 74 to 76 °C. Then `CCCSc1sc(C(=O)N2CCCC2)c2c1C(=O)CC(C)(C)C2`, with 117 to 119 °C; and `Cc1ccc(COc2ncc(F)c(NS(=O)(=O)c3ccc(C)cc3)n2)cc1`, with 120 to 122 °C. `CCCCCCCCCCNC(=O)c1ccccc1N(CC(=O)OC)CC(=O)OC` registered a melting point of 35 to 38 °C.

Compound `CC(C)CCSc1cccc(-c2nc(=O)c3ccccc3s2)n1` displayed a melting point of 103 to 105 °C. The result for `CCOC(=O)CCCCSc1nnc(S)s1` reads 53 °C. For the compound `O=C(SCC(SC(=O)c1ccccc1)C(=O)O)c1ccccc1` (stereo not given), the melting point lay within 116 to 118 °C. Then `CC1Oc2ccc(CN3CCN(c4ccc(C#N)cc4)CC3)cc2NC1=O` (stereo not given), with 266 to 268 °C; and `NC(=O)c1sc2nc(N3CCC(NCC(O)c4cccnc4)CC3)cc(C(F)(F)F)c2c1N` (stereo not given), with 179 to 181 °C; and `CCOc1nc(C)c(N2CCCn3c2nc2c(Cl)ccc(C(OC(F)F)C(F)(F)F)c23)c(C)n1` (stereo not given), with 218 to 220 °C. Then `COc1ccc(S(=O)(=O)N2CCC[C@H]2C(=O)NO)cc1`, with 164 to 166 °C. Then `N#Cc1cc(N)ccc1N1CCC(c2ccccc2)CC1`, with 158 to 162 °C; and `CCOC(=O)c1cn(Cc2ccccc2)nc1OCc1ccc(OCc2nc(-c3ccco3)oc2C)c(CC)c1`, with 125 to 126 °C. As for `O=C(OCC1CCCCC1)c1ncn2c1[C@@H]1CCCN1C(=O)c1c(Cl)cccc1-2`, the melting point was 123 to 124 °C. In turn, `N#Cc1cc(NC(=O)c2cc3ccccc3s2)ccc1OC1CCN(Cc2ccccc2)CC1` yielded a melting point of 206 °C. As to `Cn1c(C(F)(F)F)cc(=O)n(-c2cc(OCC(F)(F)F)c(Cl)cc2F)c1=O`, the melting point fell in the range of 136 to 138 °C. `CC1Cc2c(cc(C(C)(C)C)c(O)c2C(C)(C)C)S1` (stereo not given) gave a melting point of 96.7 °C. `CCCCNc1c(N)c(N)nc(C)c1C(=O)OCC` gave a melting point of 82 to 83 °C. The result for `CC(CCBr)Oc1ccccc1` (stereo not given) reads 33 to 36 °C. Regarding `COCCOc1ccc(C=O)c2cc3ccccc3cc12`, the melting point fell in the range of 72 to 74 °C. The result for `O=C(O)c1ccc(Cn2ccc(OCc3ccccc3)c(Br)c2=O)cc1` reads 251 to 256 °C. The result for `CC12CCC3C(CC=C4CC(O)CCC43C)C1CC=C2Br` (stereo not given) reads 162 to 164 °C. `COc1cc(C(=O)NS(=O)(=O)c2ccccc2)ccc1Cn1ccc2ccc(N)cc21` gave a melting point of 151 to 155 °C.

In turn, `CCOC(=O)c1cc(Oc2ccc(C(F)(F)F)cc2Cl)ccc1[N+](=O)[O-]` came in with a melting point of 156 to 160 °C. Take `O=C(O)[C@@H]1CCCN1C(=O)c1ccccc1`: the melting point lay in the range of 152 to 154 °C.

Turning to `COc1cc(OC)nc(NC(=O)NS(=O)(=O)c2ccccc2C2CCOC2=O)n1` (stereo not given), the melting point lay in the range of 164 to 166 °C. As to `CCC1c2cccn2-c2ccc(Br)cc2N1S(=O)(=O)c1ccc(O)cc1` (stereo not given), the melting point fell in the range of 206 to 208 °C. Compound `CON=C(C#N)C(=O)NC(=O)NC1CC1` yielded a melting point of 182 °C.

For the compound `CCOC(=O)Nc1[nH]c2ccc(Sc3ccccc3)cc2c1C#N`, the melting point was in the range of 181 to 182 °C. As to `CC(=NOCCOc1ccc(C[C@H](Oc2ccc(C(C)(C)C)cc2)C(=O)O)cc1)c1ccc(-c2ccccn2)cc1`, the melting point was 148 to 150 °C. In turn, `Cc1cc(F)ccc1-c1ccc(S(=O)(=O)N2c3ccccc3CC2C(=O)NCCOc2ccc(C(=O)O)cc2)cc1` (stereo not given) returned a melting point of 96 °C. The result for `O=C(O)C=Cc1ccc(-c2ccc3ncnc(Nc4ccc(OCc5cccc(F)c5)c(Cl)c4)c3c2)s1` reads 252 °C; that for `Nc1ccc(SCCn2cnnc2)cc1`, 160 to 162 °C. Then `Cc1nc2c(n1C(=O)OC(C)(C)C)CCCC2=O`, with 126 °C; and `CC(=O)Nc1ccc(/C=C/C(=O)NCC(=O)N(C)c2ccc(C)c(CCl)c2C)cn1`, with 218 to 220 °C; and `Fc1ccc(Cn2c(NC3CCN(CCCCNc4nc5cnccc5[nH]4)CC3)nc3ccccc32)cc1`, with 228 °C.

Compound `CCOC(=O)C(N=CC1C=C(Cl)C=CC1(OC(C)=O)c1ccccc1)C(=O)OCC` (stereo not given) registered a melting point of 85 to 87 °C. The result for `Cc1cc(-c2ccc(Cl)cc2)nc(-n2cnc(-c3ncc(S(N)(=O)=O)s3)c2)n1` reads 256 °C. Compound `CC(=O)NCCc1cccc2ccc(OCCCCOc3ccc4occ(CCNC(C)=O)c4c3)cc12` had a melting point of 160 to 162 °C.

As for `O=S(=O)(c1ccccc1)N1CCCC1c1ccc(C(F)(F)F)cc1` (racemic), the melting point came to 95 °C. In the case of `CCCN(Cc1ccco1)S(=O)(=O)c1ccc(OC)c2oc(C(C)=O)cc12`, the melting point was in the range of 109 to 111 °C.

Regarding `COc1ccc(Cn2nc(-c3ccc(SC)cc3)c(-c3ccc(F)cc3)cc2=S)cc1`, the melting point turned out to be 113 °C. `Cc1cc2c(Cl)nc(N)nc2o1`: the melting point was 255 to 257 °C. For `COC(=O)Cc1ccccc1N(Cc1ccc(Cl)cc1)S(C)(=O)=O`, the melting point is 73 to 75 °C. For the compound `CC(C)(C)Nc1nc(NCc2ccccc2)c(C#N)cc1F`, the melting point fell in the range of 138 to 140 °C. Then `O=C(O)c1cn(Cc2ccc(OCc3ccccc3)cc2)nc1-c1ccccc1`, with 152 to 153 °C; and `Brc1ccc(C2CCCc3cncn32)cc1` (stereo not given), with 216 °C. The result for `Oc1ncn(-c2ccccc2)n1` reads 281 to 282 °C; that for `COc1ccc(F)cc1C(=O)NC1Cc2cc(S(=O)(=O)NC(=S)NC(C)C)c(OC)cc2OC1(C)C` (stereo not given), 156 to 157 °C; that for `CC1OC(=O)N2c3ccc(O)cc3CCC12` (stereo not given), 258 to 259 °C.

With `CCOC(=O)c1[nH]cc2c1NC1=C(C(=O)CCC1)C2c1ccc(Sc2nc3c(F)c(F)c(F)cc3[nH]2)o1` (stereo not given), the melting point came out at 186 °C.

As for `Cc1ccc(C(=O)c2cc(CN3CCOCC3)c(O)c(C(C)(C)C)c2)cc1`, the melting point fell in the range of 131 to 133 °C.

The compound `c1ccc(-c2nn3c(c2-c2nc4ncccc4o2)CCC3)nc1` gave a melting point of 182 to 184 °C. Then `N#CC1(c2cccs2)C2CC3CC(C2)CC1C3` (stereo not given), with 108 to 110 °C. Compound `CCc1cc(-c2ccc(Cl)cc2)nc2c(I)cnn12` came in with a melting point of 150 to 152 °C.

Values taken from a melting point compilation (Tetko et al.; mined from patent text by program, amines drawn as free bases though some values may be those of a salt).
